Data from PubChem BioAssay AID248 (DTP/NCI, 2004).
Inconclusive results and toxic doses are left out.

System: L1210 leukemia ip in BDF1 mice, survival T/C
Test: NCI In Vivo Anticancer Drug Screen. Data for tumor model L1210 Leukemia (intraperitoneal) in B6D2F1 (BDF1) mice
Details: endpoint: mean survival time, higher = longer survival
Outline: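 Transplanted-tumor mice were given test agent; controls received vehicle only. Survival readings from the two groups were divided (treated over control).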

[1] = dose: 100.0 mg/kg/injection, schedule: Q01DX001 (ip), vehicle: saline
[2] = dose: 100.0 mg/kg/injection, schedule: Q01DX009 (ip), vehicle: saline with Tween-80
[3] = dose: 200.0 mg/kg/injection, schedule: Q01DX001 (ip), vehicle: saline
[4] = dose: 200.0 mg/kg/injection, schedule: Q01DX009 (ip), vehicle: saline with Tween-80
[5] = dose: 100.0 mg/kg/injection, schedule: Q04DX003 (ip), vehicle: saline
[6] = dose: 200.0 mg/kg/injection, schedule: Q04DX003 (ip), vehicle: saline
[7] = dose: 100.0 mg/kg/injection, schedule: Q01DX009 (ip), vehicle: Klucel (hydroxypropylcellulose) (HPC)
[8] = dose: 400.0 mg/kg/injection, schedule: Q01DX001 (ip), vehicle: saline
[9] = dose: 200.0 mg/kg/injection, schedule: Q01DX009 (ip), vehicle: Klucel (hydroxypropylcellulose) (HPC)
[10] = dose: 400.0 mg/kg/injection, schedule: Q01DX009 (ip), vehicle: Klucel (hydroxypropylcellulose) (HPC)
[11] = dose: 100.0 mg/kg/injection, schedule: Q04DX003 (ip), vehicle: Klucel (hydroxypropylcellulose) (HPC)
[12] = dose: 200.0 mg/kg/injection, schedule: Q04DX003 (ip), vehicle: Klucel (hydroxypropylcellulose) (HPC)
[13] = dose: 400.0 mg/kg/injection, schedule: Q04DX003 (ip), vehicle: Klucel (hydroxypropylcellulose) (HPC)

## COc1cc(C(=O)c2cocc2C(=O)c2ccc3c(c2)OCO3)cc(OC)c1OC
dose: 50.0 mg/kg/injection, schedule: Q01DX009 (ip), vehicle: acetone
  T/C: 110 % of control
dose: 100.0 mg/kg/injection, schedule: Q01DX009 (ip), vehicle: acetone
  T/C: 94 % of control
dose: 200.0 mg/kg/injection, schedule: Q01DX009 (ip), vehicle: acetone
  T/C: 112 % of control
dose: 400.0 mg/kg/injection, schedule: Q01DX009 (ip), vehicle: acetone
  T/C: 110 % of control

## N#CC1C(=O)NC(=O)C(C#N)C12CCCCC2 (stereo unspecified)
[1]
  T/C: 106 % of control
[2]
  T/C: 101 % of control
[3]
  T/C: 106 % of control
[4]
  T/C: 97 % of control

## CN(C)C(=O)C1C2C=CC(CC2)C1C(=O)N(C)C (stereo unspecified)
[5]
  T/C: 96 % of control
[6]
  T/C: 96 % of control
dose: 400.0 mg/kg/injection, schedule: Q04DX003 (ip), vehicle: saline
  T/C: 96 % of control

## CCN(CC)CCCC(C)Nc1ncnc2ncc3c(c12)CCCC3 (stereo unspecified)
dose: 100.0 mg/kg/injection, schedule: Q04DX002 (ip), vehicle: saline
  T/C: 102 % of control
dose: 200.0 mg/kg/injection, schedule: Q04DX002 (ip), vehicle: saline
  T/C: 98 % of control

## COc1c(Cl)c(C(Cl)(Cl)Cl)nc2ccccc12
dose: 50.0 mg/kg/injection, schedule: Q01DX009 (ip), vehicle: Klucel (hydroxypropylcellulose) (HPC)
  T/C: 101 % of control
[7]
  T/C: 104 % of control

## CN(C)c1ncnc2c1ncn2C1OC(CO)C2NP(=O)(N(CCCl)CCCl)OC21 (stereo unspecified)
dose: 75.0 mg/kg/injection, schedule: Q01DX001 (ip), vehicle: saline
  T/C: 103 % of control
dose: 150.0 mg/kg/injection, schedule: Q01DX001 (ip), vehicle: saline
  T/C: 119 % of control

## O=C(O)CCCC1OCCO1
dose: 100.0 mg/kg/injection, schedule: Q01DX001 (ip), vehicle: saline with Tween-80
  T/C: 98 % of control
dose: 200.0 mg/kg/injection, schedule: Q01DX001 (ip), vehicle: saline with Tween-80
  T/C: 95 % of control
dose: 400.0 mg/kg/injection, schedule: Q01DX001 (ip), vehicle: saline with Tween-80
  T/C: 101 % of control

## O=C1c2cccc3c([N+](=O)[O-])ccc(c23)C(=O)N1Cc1ccco1
dose: 100.0 mg/kg/injection, schedule: Q04DX002 (ip), vehicle: Klucel (hydroxypropylcellulose) (HPC)
  T/C: 108 % of control
dose: 200.0 mg/kg/injection, schedule: Q04DX002 (ip), vehicle: Klucel (hydroxypropylcellulose) (HPC)
  T/C: 97 % of control
dose: 400.0 mg/kg/injection, schedule: Q04DX002 (ip), vehicle: Klucel (hydroxypropylcellulose) (HPC)
  T/C: 102 % of control

## CC1CCC2C1C1C(CCC2(C)O)C1(C)C (stereo unspecified)
dose: 100.0 mg/kg/injection, schedule: Q01DX009 (ip), vehicle: other
  T/C: 90 % of control
dose: 100.0 mg/kg/injection, schedule: Q04DX003 (ip), vehicle: saline sonified
  T/C: 103 % of control
dose: 200.0 mg/kg/injection, schedule: Q01DX009 (ip), vehicle: other
  T/C: 95 % of control
dose: 200.0 mg/kg/injection, schedule: Q04DX003 (ip), vehicle: saline sonified
  T/C: 103 % of control
dose: 400.0 mg/kg/injection, schedule: Q01DX009 (ip), vehicle: other
  T/C: 98 % of control
dose: 400.0 mg/kg/injection, schedule: Q04DX003 (ip), vehicle: saline sonified
  T/C: 102 % of control

## O=[N+]([O-])c1ccc(N2CCOCC2)c2c1no[n+]2[O-]
dose: 12.5 mg/kg/injection, schedule: Q04DX003 (ip), vehicle: saline with Tween-80
  T/C: 108 % of control
dose: 25.0 mg/kg/injection, schedule: Q04DX003 (ip), vehicle: saline with Tween-80
  T/C: 118 % of control
dose: 50.0 mg/kg/injection, schedule: Q04DX003 (ip), vehicle: saline with Tween-80
  T/C: 116 % of control

## C=C1C(=O)O[C@@H]2[C@H]1CC[C@H](C)[C@@H]1CCC(=O)[C@@]21C
[1]
  T/C: 102 % of control
[3]
  T/C: 100 % of control
[8]
  T/C: 98 % of control

## CNC1CCCc2ccccc2C1O (stereo unspecified)
[1]
  T/C: 102 % of control

## NC(CCl)=NCCCN1CCCCC1
dose: 12.5 mg/kg/injection, schedule: Q01DX009 (ip), vehicle: Klucel (hydroxypropylcellulose) (HPC)
  T/C: 104 % of control
dose: 12.5 mg/kg/injection, schedule: Q04DX002 (ip), vehicle: Klucel (hydroxypropylcellulose) (HPC)
  T/C: 107 % of control
dose: 25.0 mg/kg/injection, schedule: Q01DX009 (ip), vehicle: Klucel (hydroxypropylcellulose) (HPC)
  T/C: 96 % of control
dose: 25.0 mg/kg/injection, schedule: Q04DX002 (ip), vehicle: Klucel (hydroxypropylcellulose) (HPC)
  T/C: 96 % of control
dose: 50.0 mg/kg/injection, schedule: Q04DX002 (ip), vehicle: Klucel (hydroxypropylcellulose) (HPC)
  T/C: 105 % of control

## CS(=O)(=O)OCCN(CCOS(C)(=O)=O)c1ccc(C=Nc2ccc(-c3csc(-c4ccc(Cl)cc4)n3)cc2)cc1
dose: 66.0 mg/kg/injection, schedule: Q04DX003 (ip), vehicle: Klucel (hydroxypropylcellulose) (HPC)
  T/C: 122 % of control
dose: 150.0 mg/kg/injection, schedule: Q04DX003 (ip), vehicle: Klucel (hydroxypropylcellulose) (HPC)
  T/C: 153 % of control

## CC(=O)C1=C(O)c2ccccc2C(=O)C1=O
dose: 100.0 mg/kg/injection, schedule: Q01DX001 (ip), vehicle: water
  T/C: 96 % of control

## CC(=O)Nc1cc([N+](=O)[O-])ccc1C
[7]
  T/C: 100 % of control
[9]
  T/C: 105 % of control

## CCCCN(CCCC)CCCN1C(=O)c2ccccc2S1(=O)=O
dose: 44.0 mg/kg/injection, schedule: Q01DX Z (ip), vehicle: methylcellulose (MC)
  T/C: 96 % of control
dose: 66.0 mg/kg/injection, schedule: Q01DX Z (ip), vehicle: methylcellulose (MC)
  T/C: 100 % of control
dose: 100.0 mg/kg/injection, schedule: Q01DX Z (ip), vehicle: methylcellulose (MC)
  T/C: 96 % of control

## O=C(Nc1cccc(C(=O)O)c1)Nc1cccc(Cl)c1Cl
[7]
  T/C: 98 % of control
[9]
  T/C: 95 % of control
[10]
  T/C: 105 % of control

## CN(C)c1ccc(C=C2/C(=N\O)c3ccccc3/C2=N/O)cc1
[7]
  T/C: 98 % of control
[9]
  T/C: 96 % of control
[10]
  T/C: 94 % of control

## CCOC(=O)Nc1nc(NC(=O)OCC)c(Cl)nc1Cl
dose: 25.0 mg/kg/injection, schedule: Q01DX009 (ip), vehicle: water
  T/C: 104 % of control
dose: 50.0 mg/kg/injection, schedule: Q01DX009 (ip), vehicle: water
  T/C: 100 % of control
dose: 100.0 mg/kg/injection, schedule: Q01DX009 (ip), vehicle: water
  T/C: 114 % of control
dose: 200.0 mg/kg/injection, schedule: Q01DX009 (ip), vehicle: water
  T/C: 106 % of control
dose: 400.0 mg/kg/injection, schedule: Q01DX009 (ip), vehicle: water
  T/C: 97 % of control

## CCN(CC)CCCN(C)C(=O)C(O)(c1ccccc1)c1ccccc1
dose: 25.0 mg/kg/injection, schedule: Q01DX001 (ip), vehicle: saline
  T/C: 102 % of control
dose: 50.0 mg/kg/injection, schedule: Q01DX001 (ip), vehicle: saline
  T/C: 97 % of control
[1]
  T/C: 102 % of control

## Cc1cccc(NC(=O)Nc2ccccc2)c1C
[7]
  T/C: 104 % of control
[11]
  T/C: 101 % of control
[9]
  T/C: 96 % of control
[12]
  T/C: 95 % of control
[10]
  T/C: 104 % of control
[13]
  T/C: 98 % of control

## c1ccc(CCNCc2ccc(CNCCc3ccccc3)cc2)cc1
dose: 100.0 mg/kg/injection, schedule: Q04DX003 (ip), vehicle: saline with Tween-80
  T/C: 93 % of control
dose: 200.0 mg/kg/injection, schedule: Q04DX003 (ip), vehicle: saline with Tween-80
  T/C: 90 % of control

## CCNC(=O)N(Cc1ccccc1)Cc1ccccc1
[2]
  T/C: 98 % of control
[4]
  T/C: 93 % of control

## CN1CCC=C(C(=O)N(c2ccccc2)c2ccccc2)C1
dose: 50.0 mg/kg/injection, schedule: Q01DX009 (ip), vehicle: saline
  T/C: 106 % of control
dose: 100.0 mg/kg/injection, schedule: Q01DX009 (ip), vehicle: saline
  T/C: 101 % of control
[5]
  T/C: 93 % of control
dose: 200.0 mg/kg/injection, schedule: Q01DX009 (ip), vehicle: saline
  T/C: 97 % of control
[6]
  T/C: 98 % of control

## O=C(O)c1cc2oc3ccccc3c2cc1O
[7]
  T/C: 94 % of control
[11]
  T/C: 98 % of control
[9]
  T/C: 100 % of control
[12]
  T/C: 95 % of control
[13]
  T/C: 93 % of control

## CNC(=O)NC1CCC(C)CC1 (stereo unspecified)
[1]
  T/C: 95 % of control
[3]
  T/C: 95 % of control
[8]
  T/C: 97 % of control

## CC(C)OCCCN
dose: 100.0 mg/kg/injection, schedule: Q01DX001 (ip), vehicle: carboxymethylcellulose (CMC)
  T/C: 97 % of control
dose: 200.0 mg/kg/injection, schedule: Q01DX001 (ip), vehicle: carboxymethylcellulose (CMC)
  T/C: 97 % of control

## COc1ncc(F)c(OC)n1
[1]
  T/C: 100 % of control
[3]
  T/C: 96 % of control
[8]
  T/C: 91 % of control
